Test results: ChEMBL document CHEMBL3885861, “Open TG-GATES”

Organism: Rattus norvegicus
Assay: Open TG-GATES - Regimen: Single
Type: toxicity, organism-based, Sprague-Dawley
Design: regimen Single, gender Male, age 6 weeks
Settings: in vivo, po, 100 mg/kg, route gavage, dose level Low; for APTT / Bas / Eos / Fbg / Hb / Ht / Lym / MCH / MCHC / MCV / Mono / Neu / PT / Plat / RBC / Ret / WBC: tissue Blood; for KIDNEY_L / KIDNEY_R / KIDNEY_TOTAL: tissue Kidney; for LIVER: tissue Liver; for A/G / ALP / ALT / AST / BUN / CRE / Ca / Cl / DBIL / GLC / IP / K / LDH / Na / PL / RALB / TBIL / TC / TG / TP / gamma-GTP: tissue Plasma

## Cc1nnc2n1-c1ccc(Cl)cc1C(c1ccccc1Cl)=NC2 [TRIAZOLAM]
3 h
  TERMINAL_BW: 192 g
  APTT: 17.6 s
  Bas: 0%
  Eos: 1%
  Fbg: 279.8 mg/dL
  Hb: 13.9 g/dL
  Ht: 42.1%
  Lym: 75%
  MCH: 21 pg
  MCHC: 33%
  MCV: 63.8 fL
  Mono: 3%
  Neu: 20.4%
  PT: 13.5 s
  Plat: 121.2 x10_4/uL
  RBC: 661.2 x10_4/ul
  Ret: 9.1%
  WBC: 73.1 x10_2/uL
  KIDNEY_L: 0.9 g
  KIDNEY_R: 0.8 g
  KIDNEY_TOTAL: 1.7 g
  LIVER: 8 g
  A/G: 0.9
  ALP: 1479.6 IU/L
  ALT: 40.8 IU/L
  AST: 75.4 IU/L
  BUN: 9.4 mg/dL
  CRE: 0.2 mg/dL
  Ca: 11 mg/dL
  Cl: 104.2 meq/L
  DBIL: 0.008 mg/dL
  GLC: 176.4 mg/dL
  IP: 10.2 mg/dL
  K: 4.3 meq/L
  LDH: 80.4 IU/L
  Na: 141.4 meq/L
  PL: 144.4 mg/dL
  RALB: 2.4 g/dL
  TBIL: 0.062 mg/dL
  TC: 75.8 mg/dL
  TG: 40.6 mg/dL
  TP: 5.1 g/dL
  gamma-GTP: 1.4 IU/L
6 h
  TERMINAL_BW: 189.9 g
  APTT: 19.9 s
  Bas: 0%
  Eos: 0.8%
  Fbg: 284 mg/dL
  Hb: 13.9 g/dL
  Ht: 42.5%
  Lym: 76.8%
  MCH: 21.1 pg
  MCHC: 32.6%
  MCV: 64.7 fL
  Mono: 2.2%
  Neu: 19.6%
  PT: 13.4 s
  Plat: 121.9 x10_4/uL
  RBC: 657.4 x10_4/ul
  Ret: 9.3%
  WBC: 73 x10_2/uL
  KIDNEY_L: 0.9 g
  KIDNEY_R: 0.9 g
  KIDNEY_TOTAL: 1.7 g
  LIVER: 8.1 g
  A/G: 0.9
  ALP: 1351.6 IU/L
  ALT: 40.4 IU/L
  AST: 69.8 IU/L
  BUN: 7.6 mg/dL
  CRE: 0.1 mg/dL
  Ca: 10.9 mg/dL
  Cl: 104.4 meq/L
  DBIL: 0.008 mg/dL
  GLC: 186.2 mg/dL
  IP: 10.5 mg/dL
  K: 4.2 meq/L
  LDH: 70 IU/L
  Na: 140.8 meq/L
  PL: 142.8 mg/dL
  RALB: 2.5 g/dL
  TBIL: 0.062 mg/dL
  TC: 78.6 mg/dL
  TG: 34 mg/dL
  TP: 5.1 g/dL
  gamma-GTP: 1.2 IU/L
9 h
  TERMINAL_BW: 190.1 g
  APTT: 18.1 s
  Bas: 0%
  Eos: 1.6%
  Fbg: 285.4 mg/dL
  Hb: 13.4 g/dL
  Ht: 41%
  Lym: 73.8%
  MCH: 20.6 pg
  MCHC: 32.7%
  MCV: 63 fL
  Mono: 2.2%
  Neu: 21.6%
  PT: 13.7 s
  Plat: 122.5 x10_4/uL
  RBC: 651.2 x10_4/ul
  Ret: 9.4%
  WBC: 68 x10_2/uL
  KIDNEY_L: 0.9 g
  KIDNEY_R: 0.9 g
  KIDNEY_TOTAL: 1.7 g
  LIVER: 7.5 g
  A/G: 0.9
  ALP: 1617.4 IU/L
  ALT: 35.8 IU/L
  AST: 65.4 IU/L
  BUN: 8.4 mg/dL
  CRE: 0.1 mg/dL
  Ca: 10.8 mg/dL
  Cl: 105 meq/L
  DBIL: 0.014 mg/dL
  GLC: 181.8 mg/dL
  IP: 10.6 mg/dL
  K: 4.5 meq/L
  LDH: 68.8 IU/L
  Na: 141 meq/L
  PL: 150.6 mg/dL
  RALB: 2.4 g/dL
  TBIL: 0.062 mg/dL
  TC: 75.4 mg/dL
  TG: 65 mg/dL
  TP: 5.2 g/dL
  gamma-GTP: 1 IU/L
24 h
  TERMINAL_BW: 208.4 g
  APTT: 20.1 s
  Bas: 0%
  Eos: 1%
  Fbg: 279 mg/dL
  Hb: 13.3 g/dL
  Ht: 40.5%
  Lym: 69%
  MCH: 20.7 pg
  MCHC: 32.8%
  MCV: 63.2 fL
  Mono: 3.2%
  Neu: 26.2%
  PT: 13.4 s
  Plat: 123.8 x10_4/uL
  RBC: 640.8 x10_4/ul
  Ret: 8.2%
  WBC: 109.3 x10_2/uL
  KIDNEY_L: 0.9 g
  KIDNEY_R: 0.9 g
  KIDNEY_TOTAL: 1.8 g
  LIVER: 9.2 g
  A/G: 0.9
  ALP: 1675 IU/L
  ALT: 41.6 IU/L
  AST: 68.2 IU/L
  BUN: 12 mg/dL
  CRE: 0.2 mg/dL
  Ca: 11.3 mg/dL
  Cl: 104.2 meq/L
  DBIL: 0.01 mg/dL
  GLC: 183.6 mg/dL
  IP: 9.4 mg/dL
  K: 4.1 meq/L
  LDH: 91 IU/L
  Na: 141.2 meq/L
  PL: 158.2 mg/dL
  RALB: 2.5 g/dL
  TBIL: 0.06 mg/dL
  TC: 82.2 mg/dL
  TG: 83.8 mg/dL
  TP: 5.4 g/dL
  gamma-GTP: 1.2 IU/L
